Values joined by “and” are separate entries in the source; they are usually repeats but may differ in a detail not shown here. Identical values can stand only once. Records with an inconclusive call do not appear.

The subject of this test is MX-1 breast xenograft, intrarenal, nude mice, tumor weight. Kind of test: NCI In Vivo Anticancer Drug Screen. Data for tumor model Human Mammary Carcinoma MX-1 Xenograft (intrarenal inoculation) in NU/NU BALB/C (nude) mice. The following applies: endpoint: mean tumor weight change, higher = larger tumour. The gist of the method:
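T/C readout: treated-group measurement over vehicle-control measurement, using tumor size or survival in tumor-bearing mice.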
On the technique in general: A xenograft is tissue or cells of one species grown in another, often human tumour cells in immunodeficient mice.

[1] abbreviates: dose: 50.0 mg/kg/injection, schedule: Q04DX003 (ip), vehicle: saline.
Where [2] appears, read: dose: 300.0 mg/kg/injection, schedule: Q04DX003 (sc), vehicle: Klucel (hydroxypropylcellulose) (HPC).
[3] abbreviates: dose: 600.0 mg/kg/injection, schedule: Q04DX003 (sc), vehicle: Klucel (hydroxypropylcellulose) (HPC).
[4] abbreviates: dose: 1200.0 mg/kg/injection, schedule: Q04DX003 (sc), vehicle: Klucel (hydroxypropylcellulose) (HPC).
Where [5] appears, read: dose: 2400.0 mg/kg/injection, schedule: Q04DX003 (sc), vehicle: Klucel (hydroxypropylcellulose) (HPC).
[6] abbreviates: dose: 150.0 mg/kg/injection, schedule: Q04DX003 (ip), vehicle: Klucel (hydroxypropylcellulose) (HPC).
[7] abbreviates: dose: 75.0 mg/kg/injection, schedule: Q04DX003 (ip), vehicle: saline with Tween-80.

Consider `O=C(O)CC(=O)O.[NH-]CC[NH-].[Pt+2]`, for which the T/C is -6 % of control (dose: 25.0 mg/kg/injection, schedule: Q01DX010 (sc), vehicle: dextrose) and -85 % of control (dose: 50.0 mg/kg/injection, schedule: Q01DX010 (sc), vehicle: dextrose).

Consider `O=c1[nH]cc(F)c(=O)[nH]1`, for which the T/C under setting [1] is 43 % of control.

As to `O=C(NC(Cc1ccc(I)cc1)C(=O)O)c1ccc(Br)cc1` (centres undefined), the T/C runs as follows: (dose: 37.5 mg/kg/injection, schedule: Q04DX003 (ip), vehicle: sodium bicarbonate) 92 % of control; (dose: 150.0 mg/kg/injection, schedule: Q04DX003 (ip), vehicle: sodium bicarbonate) 87 % of control and 112 % of control; (dose: 300.0 mg/kg/injection, schedule: Q04DX003 (ip), vehicle: sodium bicarbonate) 78 % of control.

For the compound `COc1ccc(C[C@@H]2NC[C@@H](O)[C@@H]2OC(C)=O)cc1`, the T/C by setting is: (dose: 150.0 mg/kg/injection, schedule: Q04DX003 (ip), vehicle: saline with Tween-80) 78 % of control; (dose: 300.0 mg/kg/injection, schedule: Q04DX003 (ip), vehicle: saline with Tween-80) 110 % of control.

In the case of `NC(=O)CCC(N)C(=O)O` (centres undefined), the T/C is 91 % of control (dose: 150.0 mg/kg/injection, schedule: Q04DX003 (ip), vehicle: suspension in saline); 102 % of control (dose: 300.0 mg/kg/injection, schedule: Q04DX003 (ip), vehicle: suspension in saline); 76 % of control (dose: 600.0 mg/kg/injection, schedule: Q04DX003 (ip), vehicle: suspension in saline); 87 % of control (dose: 1200.0 mg/kg/injection, schedule: Q04DX003 (ip), vehicle: suspension in saline).

Turning to `C[n+]1ccc2cc(N)c3c4ccccc4sc3c2c1`, the T/C reads like this: (dose: 12.5 mg/kg/injection, schedule: Q04DX003 (sc), vehicle: saline with Tween-80) 96 % of control; (dose: 25.0 mg/kg/injection, schedule: Q04DX003 (sc), vehicle: saline with Tween-80) 100 % of control.

For the compound `COc1ccc2[nH]c3ccc4cc[n+](CCN5CCC(C6CCN(CC[n+]7ccc8ccc9[nH]c%10ccc(OC)cc%10c9c8c7)CC6)CC5)cc4c3c2c1`, the T/C is 100 % of control (dose: 4.0 mg/kg/injection, schedule: Q04DX003 (ip), vehicle: water); 69 % of control (dose: 8.0 mg/kg/injection, schedule: Q04DX003 (ip), vehicle: other); 38 % of control (dose: 8.0 mg/kg/injection, schedule: Q04DX003 (ip), vehicle: water); 92 % of control (dose: 16.0 mg/kg/injection, schedule: Q04DX003 (ip), vehicle: other); 35 % of control (dose: 16.0 mg/kg/injection, schedule: Q04DX003 (ip), vehicle: water); 101 % of control (dose: 23.04 mg/kg/injection, schedule: Q04DX003 (ip), vehicle: other). Moreover, the T/C is, setting by setting: (dose: 32.0 mg/kg/injection, schedule: Q04DX003 (ip), vehicle: other) 86 % of control; (dose: 32.0 mg/kg/injection, schedule: Q04DX003 (ip), vehicle: water) 35 % of control; (dose: 38.4 mg/kg/injection, schedule: Q04DX003 (ip), vehicle: other) 53 % of control; (dose: 64.0 mg/kg/injection, schedule: Q04DX003 (ip), vehicle: other) 32 % of control and 42 % of control; (dose: 64.0 mg/kg/injection, schedule: Q04DX003 (ip), vehicle: water) 8 % of control.

On to `Cc1ccc(C(=O)Nc2ccc(S(=O)(=O)O)c3cc(S(=O)(=O)O)cc(S(=O)(=O)O)c23)cc1NC(=O)c1cccc(NC(=O)Nc2cccc(C(=O)Nc3cc(C(=O)Nc4ccc(S(=O)(=O)O)c5cc(S(=O)(=O)O)cc(S(=O)(=O)O)c45)ccc3C)c2)c1`, for which the T/C under setting [1] was 77 % of control; the T/C (dose: 100.0 mg/kg/injection, schedule: Q04DX003 (ip), vehicle: saline) is 56 % of control; the T/C (dose: 200.0 mg/kg/injection, schedule: Q04DX003 (ip), vehicle: saline) is 51 % of control.

As to `COc1ccc2ccccc2c1C1NC(=O)c2ccccc2N1` (centres undefined), the T/C runs as follows: under setting [2], 79 % of control; under setting [3], 104 % of control; under setting [4], 90 % of control; under setting [5], 63 % of control.

For `OCC(O)C(O)C(O)C(O)CO` (centres undefined), the T/C is, setting by setting: (dose: 75.0 mg/kg/injection, schedule: Q04DX003 (ip), vehicle: saline) 75 % of control; (dose: 150.0 mg/kg/injection, schedule: Q04DX003 (ip), vehicle: saline) 103 % of control; (dose: 300.0 mg/kg/injection, schedule: Q04DX003 (ip), vehicle: saline) 91 % of control; (dose: 600.0 mg/kg/injection, schedule: Q04DX003 (ip), vehicle: saline) 94 % of control; (dose: 1200.0 mg/kg/injection, schedule: Q04DX003 (ip), vehicle: saline) 70 % of control.

`CO[C@H]1C[C@@H]2CC[C@@H](C)[C@@](O)(O2)C(=O)C(=O)N2CCCC[C@H]2C(=O)O[C@H]([C@H](C)C[C@@H]2CC[C@@H](O)[C@H](OC)C2)CC(=O)[C@H](C)C=C(C)[C@@H](O)[C@@H](OC)C(=O)[C@H](C)C[C@H](C)/C=C/C=C/C=C1C`: the T/C by setting is: (dose: 100.0 mg/kg/injection, schedule: Q01DX010 (sc), vehicle: saline with Tween-80) 30 % of control; (dose: 200.0 mg/kg/injection, schedule: Q01DX010 (sc), vehicle: saline with Tween-80) 22 % of control; (dose: 400.0 mg/kg/injection, schedule: Q01DX010 (sc), vehicle: saline with Tween-80) 54 % of control; (dose: 800.0 mg/kg/injection, schedule: Q01DX010 (sc), vehicle: saline with Tween-80) 54 % of control.

`CC(C)CC(=O)NC(C(=O)NC(C(=O)NC(CC(C)C)C(O)CC(=O)NC(C)C(=O)NC(CC(C)C)C(O)CC(=O)O)C(C)C)C(C)C` (centres undefined): the T/C (dose: 150.0 mg/kg/injection, schedule: Q04DX002 (ip), vehicle: Klucel (hydroxypropylcellulose) (HPC)) is 47 % of control; the T/C under setting [6] was 85 % of control; the T/C (dose: 300.0 mg/kg/injection, schedule: Q04DX002 (ip), vehicle: Klucel (hydroxypropylcellulose) (HPC)) is 57 % of control; the T/C (dose: 600.0 mg/kg/injection, schedule: Q04DX002 (ip), vehicle: Klucel (hydroxypropylcellulose) (HPC)) was 21 % of control.

For `COC(=O)Nc1cn2cc(C(=O)c3cccs3)ccc2n1`, the T/C is, setting by setting: under setting [2], 70 % of control; under setting [3], 74 % of control; under setting [4], 102 % of control; under setting [5], 96 % of control.

Regarding `COc1c2c(c(O)c3c4c(c(C)cc13)C1OC3(C(OC)OC5CC(C)(O)C(OC6CC(C)(O)C(O)C(C)O6)C(C)O5)OC1C(OC)(O4)C31CO1)C(=O)C(O)CC2OC1CC(C)(O)C(OC(C)=O)C(C)O1` (centres undefined), the T/C was 61 % of control (dose: 0.06 mg/kg/injection, schedule: Q04DX003 (ip), vehicle: saline) and 45 % of control (dose: 0.5 mg/kg/injection, schedule: Q04DX003 (ip), vehicle: saline).

In the case of `CC1(C)COCN1COCCOCN1COCC1(C)C`, the T/C runs as follows: (dose: 200.0 mg/kg/injection, schedule: Q04DX003 (sc), vehicle: saline) 77 % of control; (dose: 400.0 mg/kg/injection, schedule: Q04DX003 (sc), vehicle: saline) 83 % of control.

For `C/C(=N\NC(=S)N1CC2CCC(CC2)C1)c1nccs1`, the T/C under setting [7] is 78 % of control.

With `[NH-]C(CCC(N)=O)C(=O)O.[NH-]C(CCC(N)=O)C(=O)O.[Zn+2]` (centres undefined), the T/C under setting [7] is 97 % of control.

With `Cc1cc2cc3cc(C)c(N)cc3nc2cc1N`, the T/C is, setting by setting: (dose: 200.0 mg/kg/injection, schedule: Q04DX003 (sc), vehicle: saline with Tween-80) 161 % of control; (dose: 400.0 mg/kg/injection, schedule: Q04DX003 (sc), vehicle: saline with Tween-80) 106 % of control; (dose: 800.0 mg/kg/injection, schedule: Q04DX003 (sc), vehicle: saline with Tween-80) 107 % of control; (dose: 1600.0 mg/kg/injection, schedule: Q04DX003 (sc), vehicle: saline with Tween-80) 107 % of control.

Take `O=c1[nH]cnc2c1cnn2CN1CCOCC1`: the T/C is 96 % of control under setting [6] and 65 % of control (dose: 300.0 mg/kg/injection, schedule: Q04DX003 (ip), vehicle: Klucel (hydroxypropylcellulose) (HPC)).

`OCCN1CCN(CC/C=C2/c3ccccc3Sc3ccc(C(F)(F)F)cc32)CC1`: the T/C is, setting by setting: (dose: 30.0 mg/kg/injection, schedule: Q04DX003 (sc), vehicle: saline) 65 % of control; (dose: 60.0 mg/kg/injection, schedule: Q04DX003 (sc), vehicle: saline) 43 % of control and 44 % of control; (dose: 120.0 mg/kg/injection, schedule: Q04DX003 (sc), vehicle: saline) 11 % of control and 33 % of control.
